In EP0240392A1, “Compounds of the cyclophosphazene type, process for their preparation and pharmaceutical preparation containing them” (CENTRE NATIONAL DE LA RECHERCHE SCIENTIFIQUE (CNRS), priority 1986, dated 1987):
Marks after values point to notes of the source that are not given here.

System: CARCINOME DU POUMON DE LEWIS
Assay: Antitumour activity on Lewis lung carcinoma implanted i.m. in mice
Format: in vivo, souris C57Bl/6
Details: 60 mg/kg i.p. x j 1,5,9
Source text: Les tests d'activité antitumorale ont été conduits au sein du Screening and Pharmacology Group de l'E.O.R.T.C., implanté à l'Institut Mario Negri de Milan.
Ces essais ont été conduits soit en mono-injection à différentes doses au jour J+1 suivant la greffe de la tumeur, soit en poly-injections chroniques Q1D, soit en protocoles Q4D.

Compound: O=P1(N(CCCl)CCCl)NCCCO1 (stereo not shown) [CPA, Cyclophosphamide, reference compound]
- Volume de la tumeur (d^2.D/2)cm^3 ± S.E. (jour 17): 0,57±0,16* cm^3
- Volume de la tumeur (d^2.D/2)cm^3 ± S.E. (jour 20): 1,30±0,17* cm^3
- Volume de la tumeur (d^2.D/2)cm^3 ± S.E. (jour 24): 3,03±0,25* cm^3
- Poids moyen de la tumeur (g ± S.E.) (sacrifice jour 25): 4,14 ± 0,27 g
